We go through nine compounds from PubChem BioAssay (NCI).

Several values for one entry are separate records, joined by “and”; a condition that tells them apart may be missing. Equal entries are not always repeated.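 96-well plates; 48 h exposure; 5 concentrations. Endpoints by linear interpolation between flanking doses. Not reached: highest tested concentration assigned. GI50 = concentration required for 50% inhibition of growth. The concentration for full growth arrest is given as TGI.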

Assay in all cases: DTP human tumour cell line panel, 48 h
Experiment [1] has as its system KM12 colon.
In experiment [2] the test system is HOP-62 NSCLC.
Experiment [3] has as its system 786-0 renal.
Experiment [4] relates to HCC-2998 colon.
The subject of experiment [5] is EKVX NSCLC.
For experiment [6], the system named is SK-MEL-2 melanoma.
For experiment [7], the system named is OVCAR-8 ovarian.
Experiment [8] relates to SNB-75 CNS.
Experiment [9] relates to UO-31 renal.
Experiment [10] has as its system LOX IMVI melanoma.

One may read the GI50 as the concentration that inhibits growth by half. For orientation: TGI means the concentration giving total growth inhibition. Low readings indicate more potent growth arrest, high ones less potent growth arrest. As to `COc1cc(/C=C/C(=O)N2CCC=CC2=O)cc(OC)c1OC`, the GI50 was 3.18 µM in experiment [1]; 6.93 µM in experiment [2]; 2.41 µM in experiment [3]; 1.77 µM in [4]; 2.94 µM in experiment [5]; 2.53 µM in experiment [6]. Further, the GI50 in [7] was 2.86 µM; in [8] it was 36.6 µM; in experiment [9], 1.78 µM; in experiment [10] it was 2.09 µM. Also, the TGI in [1] amounted to 12.8 µM; in experiment [2], 22.2 µM; in experiment [3], 7.03 µM; in experiment [4], 3.56 µM; in experiment [5], 14.2 µM; in experiment [6] it was 7.09 µM. Besides, the total growth inhibition concentration (TGI) in experiment [7] is 8.17 µM; in experiment [8], greater than 100 µM; in [9] it was 5.09 µM; in [10], 5.13 µM.
Consider `O=C(/C=C/C(Cl)(Cl)Cl)Nc1ccc(Cl)cc1`, for which the TGI came to 6.07 µM in experiment [1]; 9.95 µM in experiment [2]; 2.96 µM in experiment [3]; 14.5 µM in experiment [4]; 13.7 µM in [5]; 18.1 µM in experiment [6]. The TGI in experiment [7] is greater than 77.6 µM; in experiment [8], 11.1 µM; in experiment [9], 1.91 µM; in experiment [10], 2.2 µM.
`CCCCCCCCCCCCCCCCCCOc1ccccc1CC(=O)OCC[N+](CC)(CC)CC`: the GI50 in [1] was 1.42 µM; in experiment [2], 1.76 µM; in experiment [3], 1.64 µM; in experiment [4] it was 1.22 µM; in experiment [5], 2.15 µM; in experiment [6], 1.28 µM. Further, the GI50 in experiment [7] is 1.69 µM; in experiment [8], 0.968 µM; in experiment [9], 5.52 µM; in experiment [10], 0.881 µM. Further, the TGI was 3.86 µM in experiment [1]; 8.32 µM in experiment [2]; 7.54 µM in experiment [3]; 3.9 µM in experiment [4]; 8.44 µM in experiment [5]; 3.13 µM in experiment [6]. Further, the TGI in experiment [7] came to 8.3 µM; in experiment [8] it was 4.23 µM; in [9], 14.5 µM; in experiment [10] it was 1.66 µM.
For the compound `O=Cc1c(-c2ccccc2)[nH]c2ccccc2c1=O`, the TGI in experiment [1], in experiment [2], in experiment [3], in [4], in experiment [5] and in experiment [6] was greater than 100 µM throughout. The TGI in experiment [7] is greater than 100 µM; in [8], 86.4 µM; in experiment [9], greater than 100 µM; in [10] it was greater than 100 µM.
Turning to `NC(Cc1c[nH]c2ccc(F)cc12)C(=O)O` (centres undefined), the GI50 is 760 µM in [1]; 480 µM in experiment [2]; 1200 µM in [3]; 1810 µM in [4]; 1000 µM in experiment [5]; 2250 µM in [6]. The GI50 in experiment [7] was 751 µM; in experiment [8] it was 489 µM; in [9], 444 µM; in experiment [10], 509 µM. Further, the total growth inhibition concentration (TGI) in experiment [1] is greater than 2500 µM; in experiment [2], 2160 µM; in experiment [3], greater than 2500 µM; in experiment [4], greater than 2500 µM; in experiment [5], greater than 2500 µM; in [6] it was greater than 2500 µM. Further, the TGI in experiment [7] was greater than 2500 µM; in [8], 1390 µM; in [9], 1950 µM; in [10], 1860 µM.
On to `C/C(=N/O)c1ccc2c(c1)/C(=N/O)c1ccccc1-2`, for which the GI50 was 18.1 µM in [1]; 25 µM in [2]; 20.5 µM in experiment [3]; 20.3 µM in experiment [4]; 21.2 µM in experiment [5]; 23.1 µM in experiment [6]. Further, the GI50 in experiment [7] is 21.4 µM; in experiment [8] it was 17.7 µM; in [9], 18.7 µM; in experiment [10], 16.3 µM. In addition, the concentration for total growth inhibition (TGI) in experiment [1] worked out at 35.4 µM; in experiment [2], 56.4 µM; in experiment [3] it was 38.5 µM; in [4], 35.9 µM; in [5], 66.1 µM; in experiment [6] it was 48 µM. In addition, the TGI came out at 46.4 µM in experiment [7], 44.2 µM in experiment [8], 38.2 µM in experiment [9] and 33.3 µM in experiment [10].
For `Cc1ccc(-c2nc(N3CCNCC3)c3oc(-c4ccccc4)nc3n2)cc1`, the GI50 in experiment [1] is 1.85 µM; in experiment [2] it was 1.96 µM; in [3] it was 1.77 µM; in [4], greater than 100 µM; in experiment [5] it was 3.94 µM; in [6], 2.64 µM. The GI50 in experiment [7] is 1.95 µM; in experiment [8] it was 1.62 µM; in [9], 1.43 µM; in experiment [10], 1.88 µM. Also, the TGI in experiment [1] was 3.51 µM; in [2] it was 4.48 µM; in experiment [3] it was 3.25 µM; in [4], greater than 100 µM; in experiment [5], greater than 100 µM; in experiment [6], 6.01 µM. Also, the TGI was 4.15 µM in experiment [7], 3.02 µM in experiment [8], 2.78 µM in [9] and 3.43 µM in [10].
As for `O=C1C=CC(=Nc2cccc3c(N=C4C=CC(=O)O4)cccc23)O1`, the TGI in [1] was greater than 100 µM; in [2], greater than 100 µM; in [3], 34.5 µM; in experiment [4], greater than 100 µM; in [5], 35.2 µM; in experiment [6] it was greater than 100 µM. Moreover, the TGI was 41.1 µM in [7], greater than 100 µM in experiment [8], greater than 100 µM in experiment [9] and 91.2 µM in experiment [10].
Turning to `CC(C)(C)NC(=O)[C@H]1CC[C@H]2[C@@H]3CC[C@H]4NC(=O)C=C[C@]4(C)[C@H]3CC[C@]12C`, the GI50 was greater than 100 µM in experiment [1]; greater than 100 µM in experiment [2]; greater than 100 µM in experiment [3]; greater than 100 µM in experiment [4]; 70.1 µM and > 100 µM in experiment [5]; greater than 100 µM in experiment [7]. The GI50 was greater than 100 µM in [8]; 71.1 µM and > 100 µM in experiment [9]; greater than 100 µM in experiment [10]. Further, the TGI in experiment [1], in [2], in [3], in experiment [4], in experiment [5] and in [6] was greater than 100 µM each time. In addition, the total growth inhibition concentration (TGI) in experiment [7], in [8], in [9] and in experiment [10] was greater than 100 µM each time.
